These results are taken from patent US7368576B2, “Dipeptidyl peptidase IV inhibitors and their uses as anti-cancer agents” (Probiodrug AG, priority 2001, dated 2008).

Structures are written as SMILES. “Also recorded” adds a separate entry of the source. Counter-ions that a name gives are not always drawn.

The test system of data set [1] is MADB106 tumor cells. Kind of data set: In vivo cancer cell adhesion assay (CFSE labeled cells in lungs). The settings on record: 30 min after inoculation. More on the design: species or system F344 rats. The procedure: (§1) Cell culture, injection of tumor cells, dissection of the animals and immunohistochemistry were conducted as previously described (von Hörsten et al., 2000). In brief, 1×10^6 MADB106 tumor cells derived from log phase of tumor growth were injected via the lateral tail vein and lungs removed at different time points thereafter. For in situ quantification of tumor cells at early time points after injection (30 min), cells were vital dye stained using the fluorescein derivate 5- (and -6)-carboxyfluorescein diacetate succinimidyl ester (CFSE) before injection.
Control sections were included in which one or both primary antibodies were omitted.
Vital dye (Carboxyfluorescein; CFSE) labeling of MADB106 tumor cells allows the quantification of tumor cells and NK cells in thick sections of lung tissue by stereology in situ (von Hörsten et al, 2000). In the present study we produced thin sections (8 μm) of the same lungs (n=10) and performed additional microscopic counting by image analysis of DE1 positive cells. This was done to further simplify the previously validated stereological quantification technique. Therefore, in the present study, the assessment of DE1 positive tumor cells in lung tissue from different substrains 30 min after tumor inoculation was carried out using image analysis approach. […] Each right upper lobe of the lungs was sectioned at 6 randomly chosen non-adjacent levels. From each level, three sections were evaluated.

Data set [2] relates to MADB106 tumor cells. In words: Cancer colonization assay (lung surface tumor colonies). The note with it: F344 rats, 2 weeks after MADB106 injection; for number of lung surface tumor colonies, comparison of inhibitors: chronic intragastric infusion, isoleucyl thiazolidine fumarate 4 mg/24 h, the others 0.1 mg/24 h, vs. saline SHAM. Format: in vivo. As for the experimental part: as §1
In brief, 1×10^6 MADB106 tumor cells derived from log phase of tumor growth were injected via the lateral tail vein and lungs removed at different time points thereafter. For in situ quantification of tumor cells at early time points after injection (30 min), cells were vital dye stained using the fluorescein derivate 5- (and -6)-carboxyfluorescein diacetate succinimidyl ester (CFSE) before injection.
(§2) Osmotic minipumps (Alzet model 2ML4; flow rate, 2.5 μl/hr; Alza Corporation), administering a constant supply of the different compounds, aseptically prefilled with either saline or DPIV inhibitor were placed subcutaneously in the abdominal area. Minipums were attached to a cannula via polyethylene tubing. The cannula was implanted intragastrically with a heating-induced enlarged tip of the cannula in the lumen of the gaster.

The test system of data set [3] is MADB106 tumor cells. Kind of data set: Body weight change in rats with lung metastasis. Format: in vivo. The settings on record: F344 rats, chronic intragastric infusion via osmotic minipumps, 0.04, 0.4, 4 mg/24 h, 2 weeks after MADB106 injection, post-hoc significant at 0.4 mg and 4 mg. As for the experimental part: as §2
Data from in vivo body weight gain and number of lung surface tumor colonies were analyzed by one-way ANOVAs and Fisher's PLSD post hoc tests, if appropriate. An asterisk indicates significant post hoc effects vs. saline (SHAM) treated controls obtained by Fisher's PLSD. All data are presented as means±S.E.M.

For data set [4], the target named is T1, dipeptidyl peptidase IV from porcine kidney (Sus scrofa, UniProt P22411).
T1 construct: dipeptidyl peptidase IV from porcine kidney; from tissue; host or cells: porcine kidney
In words: Ki determination, DPIV inhibition (glycylprolyl-4-nitroaniline). It counts as biochemical. The note with it: HEPES pH7.6, 30° C.

In data set [5] the target is purified porcine DPIV (Sus scrofa, UniProt P22411). In words: Determination of IC50 values, DPIV (Gly-Pro-pNA). It counts as biochemical. The settings on record: Gly-Pro-pNA 0.4 mM, HEPES pH7.6, 30° C. As for the experimental part:
100 μl inhibitor stock solution were mixed with 100 μl buffer (HEPES pH7.6) and 50 μl substrate (Gly-Pro-pNA, final concentration 0.4 mM) and preincubated at 30° C. Reaction was started by addition of 20 μl purified porcine DPIV. Formation of the product pNA was measured at 405 nm over 10 min using the HTS 7000Plus plate reader (Perkin Elmer) and slopes were calculated. The final inhibitor concentrations ranged between 1 mM and 30 nM. For calculation of IC50 GraFit 4.0.13 (Erithacus Software) was used.

In data set [6] the target is T2, porcine dipeptidyl peptidase II (DP II) (Sus scrofa, UniProt A0A5G2QK18).
T2 construct: The enzyme used was purified from porcine kidney; from tissue; host or cells: porcine kidney
Kind of data set: Inhibition of DPIV-like enzymes, dipeptidyl peptidase II. It counts as biochemical. The settings on record: lysylalanylaminomethylcoumarine, 30° C.; read-out: Ki against porcine dipeptidyl peptidase II. As for the experimental part:
DP II (3.4.14.2) releases N-terminal dipeptides from oligopeptides if the N-terminus is not protonated (McDonald, J. K., Ellis, S. & Reilly, T. J., 1966, J. Biol. Chem., 241, 1494-1501). Pro and Ala in Pi-position are preferred residues. The enzyme activity is described as DPIV-like activity, but DP II has an acidic pH-optimum. The enzyme used was purified from porcine kidney.
100 μl glutaminyl pyrrolidine or glutaminyl thiazolidine in an concentration range of 1*10^−4 M-5*10^−8 M were admixed with 100 μl μl buffer solution (40 mM HEPES, pH7.6, 0.015% Brij, 1 mM DTT), 50 μl lysylalanylaminomethylcoumarine solution (5 mM) and 20 μl porcine DP II (250fold diluted in buffer solution). Fluorescence measurement was performed at 30° C. and λexiatation=380 nm, λemission=465 nm for 25 min using a plate reader (HTS7000plus, Applied Biosystems, Weiterstadt, Germany).

For data set [7], the system named is MADB106 tumor cells. In words: Cancer colonization assay (lung surface tumor colonies). Format: in vivo, F344 rats. The note with it: F344USA rats, 2 mg i.v. + 2 mg i.p., 2 weeks after MADB106 injection, vs. saline; fumarate.
For data set [8] the following is noted: REINHOLD, D., et al., 1998; cited from earlier work.

T2 sequence (A0A5G2QK18 28-502): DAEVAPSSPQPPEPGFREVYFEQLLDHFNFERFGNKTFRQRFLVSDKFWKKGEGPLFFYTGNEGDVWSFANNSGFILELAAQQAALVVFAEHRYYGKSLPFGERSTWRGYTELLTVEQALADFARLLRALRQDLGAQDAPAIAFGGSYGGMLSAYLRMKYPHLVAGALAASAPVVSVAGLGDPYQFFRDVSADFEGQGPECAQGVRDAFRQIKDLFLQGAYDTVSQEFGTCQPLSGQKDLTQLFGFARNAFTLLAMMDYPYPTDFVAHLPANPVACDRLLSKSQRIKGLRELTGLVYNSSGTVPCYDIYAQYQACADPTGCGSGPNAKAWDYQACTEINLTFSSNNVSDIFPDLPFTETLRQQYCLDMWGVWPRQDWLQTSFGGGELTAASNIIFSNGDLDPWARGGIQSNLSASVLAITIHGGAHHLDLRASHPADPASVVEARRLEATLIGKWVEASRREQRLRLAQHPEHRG
purified porcine DPIV, sequence (P22411 whole entry): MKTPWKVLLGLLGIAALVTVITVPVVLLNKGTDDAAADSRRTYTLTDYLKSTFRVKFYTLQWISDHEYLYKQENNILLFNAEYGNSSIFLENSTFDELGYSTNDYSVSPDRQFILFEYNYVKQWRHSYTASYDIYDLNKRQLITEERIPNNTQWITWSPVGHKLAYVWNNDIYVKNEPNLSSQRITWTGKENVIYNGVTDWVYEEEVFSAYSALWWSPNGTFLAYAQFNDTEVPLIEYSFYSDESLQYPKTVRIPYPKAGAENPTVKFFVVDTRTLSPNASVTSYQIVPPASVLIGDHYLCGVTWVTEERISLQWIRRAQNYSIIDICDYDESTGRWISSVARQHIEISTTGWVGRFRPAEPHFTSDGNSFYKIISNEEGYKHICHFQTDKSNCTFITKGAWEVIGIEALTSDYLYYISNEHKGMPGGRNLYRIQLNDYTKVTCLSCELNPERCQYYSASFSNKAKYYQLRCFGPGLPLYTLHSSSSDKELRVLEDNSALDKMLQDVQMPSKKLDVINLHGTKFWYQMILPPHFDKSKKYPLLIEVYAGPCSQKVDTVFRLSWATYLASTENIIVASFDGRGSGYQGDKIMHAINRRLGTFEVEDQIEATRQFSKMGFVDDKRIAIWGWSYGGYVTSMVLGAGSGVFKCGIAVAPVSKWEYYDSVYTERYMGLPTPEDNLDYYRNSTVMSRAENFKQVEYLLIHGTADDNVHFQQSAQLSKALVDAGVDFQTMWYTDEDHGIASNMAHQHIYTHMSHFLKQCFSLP
T1 sequence (P22411 whole entry): as above

With `CC[C@H](C)[C@H](N)C(=O)N1CCCC1C#N.O=C(O)C(F)(F)F` (stereo partly drawn) [isoleucyl cyanopyrrolidine TFA], the “tumor cell adhesion, CFSE positive cells in lung tissue” value in data set [1] (wild-type F344USA rats, single injection i.v. + i.p., vs. saline, TFA) is “no significant effect; also recorded: significant differences vs. saline treated controls were not found”. Moreover, the “number of lung surface tumor colonies, comparison of inhibitors” value in data set [2] (TFA) was “significant reduction of lung colony numbers”; in data set [2] (listed as isoleucyl cyano pyrrolidine TFA, TFA), “dose-dependently reduced”. Also, the “body weight change (cancer-induced weight loss)” value in data set [3] is “dose-dependently reduced”.
As a reminder, the Ki is the dissociation constant of the complex between target and ligand, obtained from inhibition or displacement. As usually defined, the IC50 is the concentration at which inhibition is half-maximal. A high value points to weaker potency in that assay. Take `NC(=O)CCC(N)C(=O)N1CCSC1` (stereo not drawn) [Gln-Thia, glutaminyl thiazolidine]: the values for the Ki in data set [4] and in data set [6] were 1210 nM and 10.7 µM, respectively. This compound also displayed an IC50 in data set [5] of 527 µM.
With `CC[C@H](C)[C@H](N)C(=O)N1CCSC1` [Isoleucyl thiazolidine fumarate], the “tumor cell adhesion, CFSE positive cells in lung tissue” value was “significantly modified; also recorded: promoting effect” in data set [1] (DPIV mutant F344GER and F344JAP rats, single injection 2 mg i.v. + 2 mg i.p., fumarate); “did not significantly affect tumor adhesion; also recorded: lack of effects” in data set [1] (wild-type F344USA rats, single injection i.v. + i.p., vs. saline, fumarate). In addition, in data set [2] (chronic intragastric infusion 0.04, 0.4, 4 mg/24 h, post-hoc significant at 4 mg, fumarate), the “number of lung surface tumor colonies, different dosages” value is “significant effect; also recorded: dose dependent reduction of lung colony numbers”. For the same compound, the “number of lung surface tumor colonies, comparison of inhibitors” value in data set [2] (fumarate) is recorded as “dose-dependently reduced; also recorded: significant reduction of lung colony numbers”. Moreover, the “body weight change (cancer-induced weight loss)” value in data set [3] (fumarate) is “dose-dependently reduced; also recorded: dose dependent reduction of the loss of body weight”. Moreover, in data set [7], the “number of lung surface tumor colonies after single injection” value is listed as “no significant effect; also recorded: no significant differences”.
`N[C@@H](CCCCNC(=O)OCc1ccc([N+](=O)[O-])cc1)C(=O)N1CCSC1` [Lys(Z-NO2)-Thia]: in data set [8], the transport entry is given as “transported completely”.
Take `N[C@@H](CCC(=O)NCC(=O)O)C(=O)N1CCSC1` [Glu(Gly)-Thia]: the transport result in data set [8] is on record as “transported completely”.
